Results from patent publication US20230011571A1, “SMALL MOLECULE FURIN INHIBITORS FOR TREATING INFECTIOUS DISEASES” (BP Asset V, Inc., priority 2019, published 2023).

Tests used:
Assay type in all cases: cell-based
dengue virus (DENV) = test: microbe, parasite or virus in culture; conditions: Dengue virus, Vero, 120 h, read-out: Percent viral inhibition DENY
Marburg virus (MARV) = test: organism not typed; conditions: Vero, 72 h, read-out: Percent viral inhibition MARV
[1] = tested on: Chikungunya virus (CHIKV); test: microbe, parasite or virus in culture; conditions: Chikungunya virus, Vero, 48 h, read-out: Percent viral inhibition CHKV

SMILES | inhibition at 1 µM (dengue virus (DENV)) [%] | inhibition at 1 µM (Marburg virus (MARV)) [%] | inhibition at 1 µM [1] [%]
CN1CCN(c2ccc(Oc3cc(CN4CC[C@@H]5[C@H](CC4)[C@H]5C(=O)O)cc(-c4cc(Cl)cc(Cl)c4)n3)nn2)CC1 [Example 361, (1R,7S,8r)-4-((2-(3,5-dichlorophenyl)-6-((6-(4-methylpiperazin-1-yl)pyridazin-3-yl)oxy)pyridin-4-yl)methyl)-4-azabicyclo[5.1.0]octane-8-carboxylic acid] | 12.1 | 42 | 26.6
CN1CCCN(c2ccc(Oc3cc(CN4CC[C@@H]5[C@H](CC4)[C@H]5C(=O)O)cc(-c4cc(Cl)cc(Cl)c4)n3)nn2)CC1 [Example 362, (1R,7S,8r)-4-((2-(3,5-dichlorophenyl)-6-((6-(4-methyl-1,4-diazepan-1-yl)pyridazin-3-yl)oxy)pyridin-4-yl)methyl)-4-azabicyclo[5.1.0]octane-8-carboxylic acid] | 50.2 | 50.9 | 14.9
CC(=O)NCC1CCN(Cc2cc(Oc3ccc(N4CCN(CC(C)C(=O)O)CC4)nn3)nc(-c3cc(Cl)cc(Cl)c3)c2)CC1 (stereo not drawn) [Example 363, 3-(4-(6-((4-((4-(acetamidomethyl)piperidin-1-yl)methyl)-6-(3,5-dichlorophenyl)pyridin-2-yl)oxy)pyridazin-3-yl)piperazin-1-yl)-2-methylpropanoic acid] | 0 | 2.8 | 0
C[C@H](CC1CCN(Cc2cc(Oc3ccc(N4CCN(C)CC4)nn3)nc(-c3cc(Cl)cc(Cl)c3)c2)CC1)C(=O)O [Example 364, (R)-3-(1-((2-(3,5-dichlorophenyl)-6-((6-(4-methylpiperazin-1-yl)pyridazin-3-yl)oxy)pyridin-4-yl)methyl)piperidin-4-yl)-2-methylpropanoic acid] | 40 | 47.6 | 31.4
C[C@@H](CC1CCN(Cc2cc(Oc3ccc(N4CCN(C)CC4)nn3)nc(-c3cc(Cl)cc(Cl)c3)c2)CC1)C(=O)O [Example 365, (S)-3-(1-((2-(3,5-dichlorophenyl)-6-((6-(4-methylpiperazin-1-yl)pyridazin-3-yl)oxy)pyridin-4-yl)methyl)piperidin-4-yl)-2-methylpropanoic acid] | 32.4 | 17.4 | 0
CCN1C[C@@H]2C[C@H]1CN2c1ccc(Oc2cc(CN3CCC(CC(=O)O)CC3)cc(-c3cc(Cl)cc(Cl)c3)n2)nn1 [Example 366, 2-(1-((2-(3,5-dichlorophenyl)-6-((6-((1S,4S)-5-ethyl-2,5-diazabicyclo[2.2.1]heptan-2-yl)pyridazin-3-yl)oxy)pyridin-4-yl)methyl)piperidin-4-yl)acetic acid] | 48.5 | 23.1 | 6.17
CC(=O)N[C@H]1[C@@H]2CCN(Cc3cc(Oc4cnc(N5CCN(CCC(=O)O)CC5)nc4)nc(-c4cc(Cl)cc(Cl)c4)c3)CC[C@@H]21 [Example 367, 3-(4-(5-((4-(((1R,7S,8r)-8-acetamido-4-azabicyclo[5.1.0]octan-4-yl)methyl)-6-(3,5-dichlorophenyl)pyridin-2-yl)oxy)pyrimidin-2-yl)piperazin-1-yl)propanoic acid] | 15 | 54.7 | 27.4
COC(=O)C(C)CCN1CCN(c2ncc(Oc3cc(CN4CCC(CNC(C)=O)CC4)cc(-c4cc(Cl)cc(Cl)c4)n3)cn2)CC1 (stereo not drawn) [Example 368, methyl4-(4-(5-((4-((4-(acetamidomethyl)piperidin-1-yl)methyl)-6-(3,5-dichlorophenyl)pyridin-2-yl)oxy)pyrimidin-2-yl)piperazin-1-yl)-2-methylbutanoate] | 65.8 | 65.4 | 32.5
CC(=O)NCC1CCN(Cc2cc(Oc3cnc(N4CCN(CCC(C)(C)C(=O)O)CC4)nc3)nc(-c3cc(Cl)cc(Cl)c3)c2)CC1 [Example 370, 4-(4-(5-((4-((4-(acetamidomethyl)piperidin-1-yl)methyl)-6-(3,5-dichlorophenyl)pyridin-2-yl)oxy)pyrimidin-2-yl)piperazin-1-yl)-2,2-dimethylbutanoic acid] | 41.7 | 57 | 24.6
CC(=O)NCC1CCN(Cc2cc(Oc3cnc(N4CCN(C(C)CCS(C)(=O)=O)CC4)nc3)nc(-c3cc(F)cc(Cl)c3)c2)CC1 (stereo not drawn) [Example 372, N-((1-((2-(3-chloro-5-fluorophenyl)-6-((2-(4-(4-(methylsulfonyl)butan-2-yl)piperazin-1-yl)pyrimidin-5-yl)oxy)pyridin-4-yl)methyl)piperidin-4-yl)methyl)acetamide] | 81.8 | 45.3 | 18.2
CNC(=O)NCC1CCN(Cc2cc(Oc3cnc(N4CCN(C(C)CCS(C)(=O)=O)CC4)nc3)nc(-c3cc(F)cc(Cl)c3)c2)CC1 (stereo not drawn) [Example 373, 1-((1-((2-(3-chloro-5-fluorophenyl)-6-((2-(4-(4-(methylsulfonyl)butan-2-yl)piperazin-1-yl)pyrimidin-5-yl)oxy)pyridin-4-yl)methyl)piperidin-4-yl)methyl)-3-methylurea] | 53.4 | 67.8 | 28.8
CN1CCCN(c2ncc(Oc3cc(CN4CCC(CC(=O)O)CC4)cc(-c4cc(F)cc(Cl)c4)n3)cn2)CC1 [Example 374, 2-(1-((2-(3-chloro-5-fluorophenyl)-6-((2-(4-methyl-1,4-diazepan-1-yl)pyrimidin-5-yl)oxy)pyridin-4-yl)methyl)piperidin-4-yl)acetic acid] | 38.5 | 48.6 | 17.6
CN1CCN(c2ncc(Oc3cc(-c4cc(Cl)cc(Cl)c4)cc(CN4CCC(CC(=O)O)CC4)c3F)cn2)CC1 [Example 376, 2-(1-((3′,5′-dichloro-4-fluoro-5-((2-(4-methylpiperazin-1-yl)pyrimidin-5-yl)oxy)-[1,1′-biphenyl]-3-yl)methyl)piperidin-4-yl)acetic acid] | 0 | 12.7 | 13.5
CN1CCN(c2ncc(Oc3nc(-c4cc(Cl)cc(Cl)c4)cc(CN4CCC(CC(=O)O)CC4)c3F)cn2)CC1 [Example 379, 2-(1-((6-(3,5-dichlorophenyl)-3-fluoro-2-((2-(4-methylpiperazin-1-yl)pyrimidin-5-yl)oxy)pyridin-4-yl)methyl)piperidin-4-yl)acetic acid] | 35.2 | 51.2 | 41.5
COC(=O)CCN1CCN(c2ccc(Oc3cc(CN4CCC(CNC(C)=O)CC4)cc(-c4cc(Cl)cc(Cl)c4)n3)cn2)CC1 [Example 385, methyl3-(4-(5-((4-((4-(acetamidomethyl)piperidin-1-yl)methyl)-6-(3,5-dichlorophenyl)pyridin-2-yl)oxy)pyridin-2-yl)piperazin-1-yl)propanoate] | 48.5 | 56.7 | 14.9
O=C(O)CC1CCN(Cc2cc(Oc3cnc(N4CCN(Cc5cnn[nH]5)CC4)nc3)nc(-c3cc(Cl)cc(Cl)c3)c2)CC1 [Example 387, 2-(1-((2-((2-(4-((1H-l,2,3-triazol-5-yl)methyl)piperazin-1-yl)pyrimidin-5-yl)oxy)-6-(3,5-dichlorophenyl)pyridin-4-yl)methyl)piperidin-4-yl)acetic acid] | 39.9 | 41.4 | 36.3
CC(=O)NCC1CCN(Cc2cc(Oc3cnc(N4CCN(CCC(N)=O)CC4)cn3)nc(-c3cc(Cl)cc(Cl)c3)c2)CC1 [Example 391] | 51.4 | 35.4 | 14
CCC(=O)NCC1CCN(Cc2cc(Oc3cnc(N4CCN(CCC(C)C(=O)O)CC4)cn3)nc(-c3cc(Cl)cc(Cl)c3)c2)CC1 (stereo not drawn) [Example 392, 4-(4-(5-((6-(3,5-dichlorophenyl)-4-((4-(propionamidomethyl)piperidin-1-yl)methyl)pyridin-2-yl)oxy)pyrazin-2-yl)piperazin-1-yl)-2-methylbutanoic acid] | 34.9 | 60.6 | 15.8
COC(=O)NCC1CCN(Cc2cc(Oc3cnc(N4CCN(C)CC4)cn3)nc(-c3cc(Cl)cc(Cl)c3)c2)CC1 [Example 395, methyl((1-((2-(3,5-dichlorophenyl)-6-((5-(4-methylpiperazin-1-yl)pyrazin-2-yl)oxy)pyridin-4-yl)methyl)piperidin-4-yl)methyl)carbamate] | 88.2 | 37.2 | 0
CC(=O)NCC1CCN(Cc2cc(Oc3cnc(N4CCN(CCC(C)C(=O)O)CC4)cn3)nc(-c3cc(Cl)cc(Cl)c3)c2)CC1 (stereo not drawn) [Example 396, 4-(4-(5-((4-((4-(acetamidomethyl)piperidin-1-yl)methyl)-6-(3,5-dichlorophenyl)pyridin-2-yl)oxy)pyrazin-2-yl)piperazin-1-yl)-2-methylbutanoic acid] | 46.3 | 26.7 | 21.5
CN1CCCN(c2ncc(Oc3cc(CN4CC[C@@H]5[C@H](CC4)[C@H]5C(=O)O)cc(-c4cc(Cl)cc(Cl)c4)n3)cn2)CC1 [Example 397, (1R,7S,8r)-4-((2-(3,5-dichlorophenyl)-6-((2-(4-methyl-1,4-diazepan-1-yl)pyrimidin-5-yl)oxy)pyridin-4-yl)methyl)-4-azabicyclo[5.1.0]octane-8-carboxylic acid] | 38.7 | 46.2 | 25.1
